US11814376B2, “Hepatitis b core protein modulators” (Assembly Biosciences, Inc., priority 2015, dated 2023)

Legend:
AD38 cells = experiment: Viability of AD38 cells (Promega CellTiter-Glo); format: cell-based; details: 10 μM compound, 6 days, CellTiter-Glo luminescence normalized to DMSO control (100%)
Summary of the method: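 After 6 days of compound exposure at 37° C (compound added as 10× solution in 10% DMSO; 50,000 cells/well, collagen-coated), medium was replaced with tetracycline-free DMEM/F12, 2% FBS, 1% DMSO. CellTiter-Glo luminescence was then recorded and normalized to DMSO-treated wells as 100% viability.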

[1] = test system: HBV viral load in AD38 cells; experiment: Viral load production in AD38 cells, quantitative PCR of the core sequence in supernatant; format: cell-based; details: Hepatitis B virus, 144 h, 10 μM compound, 6 days at 37° C., supernatant qPCR, relative to DMSO control; read-out: AD38 Viral Load (%) (VL with cmpd/VL in DMSO control) at 10 μM

SMILES: N#Cc1ccc(-c2ncc(CNC(=O)c3ccc4c(c3)NC(=O)c3ccccc3S4(=O)=O)s2)nc1 [compound 1881]
- AD38 Viability Normalized Result (cmpd/DMSO %) at 10 μM (AD38 cells): 108%
- activity at 10 µM [1]: 0.8%

SMILES: O=C(O)CSc1ncc(CNC(=O)c2ccc3c(c2)NC(=O)c2ccccc2S3)s1 [compound 1603, 2-((5-((11-oxo-10, 11-dihydrodibenzo [b, f] [1, 4]thiazepine-8-carboxamido)methyl)thiazol-2-yl)thio) acetic acid]
- AD38 Viability Normalized Result (cmpd/DMSO %) at 10 μM (AD38 cells): 108%
- activity at 10 µM [1]: 32.8%

SMILES: N#Cc1ccc(-c2ncc(CNC(=O)c3ccc4c(c3)NC(=O)c3ccccc3N4CCO)s2)c(F)c1 [compound 11079]
- AD38 Viability Normalized Result (cmpd/DMSO %) at 10 μM (AD38 cells): 102%
- activity at 10 µM [1]: 3.3%

SMILES: O=C(NCc1cnc(-c2ccc(O)c(F)c2)s1)c1ccc2c(c1)NC(=O)c1ccccc1S2(=O)=O [compound 1664]
- AD38 Viability Normalized Result (cmpd/DMSO %) at 10 μM (AD38 cells): 99%
- activity at 10 µM [1]: 0.6%

SMILES: Cc1ncc(CNC(=O)c2ccc3c(=O)c4ccccc4c(=O)[nH]c3c2)s1 [compound 1592]
- AD38 Viability Normalized Result (cmpd/DMSO %) at 10 μM (AD38 cells): 99%
- activity at 10 µM [1]: 1.3%

SMILES: O=C(NCc1cnc(-c2ccc3[nH]cnc3c2)s1)c1ccc2c(c1)NC(=O)c1ccccc1O2 [compound 1695]
- AD38 Viability Normalized Result (cmpd/DMSO %) at 10 μM (AD38 cells): 102%
- activity at 10 µM [1]: 22.9%

SMILES: Cc1cc2c(cc1C(=O)NCc1cnc(-c3ccc(O)cc3)s1)NC(=O)c1ccccc1S2 [compound 1758]
- AD38 Viability Normalized Result (cmpd/DMSO %) at 10 μM (AD38 cells): 15%
- activity at 10 µM [1]: 3.8%

SMILES: Cc1c(C(=O)NCc2cnc(-c3ccc(C#N)cc3)s2)ccc2c1NC(=O)c1ccccc1S2(=O)=O [compound 1877]
- AD38 Viability Normalized Result (cmpd/DMSO %) at 10 μM (AD38 cells): 96%
- activity at 10 µM [1]: 0.2%

SMILES: O=C(NCc1cnc(-c2ccc(F)cc2)s1)c1ccc2c(c1)NC(=O)c1ccccc1O2 [compound 1561]
- AD38 Viability Normalized Result (cmpd/DMSO %) at 10 μM (AD38 cells): 96%
- activity at 10 µM [1]: 10.3%

SMILES: O=C(NCc1cnc(C(F)(F)F)s1)c1ccc2c(c1)NC(=O)c1ccccc1S2(=O)=O [compound 1553]
- AD38 Viability Normalized Result (cmpd/DMSO %) at 10 μM (AD38 cells): 107%
- activity at 10 µM [1]: 0.5%

SMILES: CCN(CC)CCCOc1ccc(-c2ncc(CNC(=O)c3ccc4c(c3)NC(=O)c3ccccc3S4(=O)=O)s2)cc1 [compound 11073]
- AD38 Viability Normalized Result (cmpd/DMSO %) at 10 μM (AD38 cells): 94%
- activity at 10 µM [1]: 2.2%

SMILES: Cl.O=C(NCc1cnc(-c2ccc(OC[C@H]3CCCN3)cc2)s1)c1ccc2c(c1)NC(=O)c1ccccc1S2(=O)=O [compound 11104, (R)-11-oxo-N-((2-(4-(pyrrolidin-2-ylmethoxy)phenyl)thiazol-5-yl)methyl)-10, 11-dihydrodibenzo [b, f] [1, 4] thiazepine-8-carboxamide 5,5-dioxide hydrochloride]
- AD38 Viability Normalized Result (cmpd/DMSO %) at 10 μM (AD38 cells): 97%
- activity at 10 µM [1]: 9.4%

SMILES: CN(C)CCCCOc1ccc(-c2ncc(CNC(=O)c3ccc4c(c3)NC(=O)c3ccccc3S4(=O)=O)s2)cc1 [compound 11001]
- AD38 Viability Normalized Result (cmpd/DMSO %) at 10 μM (AD38 cells): 77%
- activity at 10 µM [1]: 1.7%

SMILES: O=C1CCN(c2ncc(CNC(=O)c3ccc4c(c3)NC(=O)c3ccccc3S4(=O)=O)s2)CC1 [compound 1906]
- AD38 Viability Normalized Result (cmpd/DMSO %) at 10 μM (AD38 cells): 89%
- activity at 10 µM [1]: 7.8%

SMILES: COc1ccc(-c2ncc(CNC(=O)c3ccc4c(c3)NC(=O)c3ccccc3S4)s2)cc1 [compound 1606]
- AD38 Viability Normalized Result (cmpd/DMSO %) at 10 μM (AD38 cells): 91%
- activity at 10 µM [1]: 3%

SMILES: CN(CCCOc1ccc(-c2ncc(CNC(=O)c3ccc4c(c3)NC(=O)c3ccccc3S4(=O)=O)s2)cc1)CC(F)(F)F [compound 1994]
- AD38 Viability Normalized Result (cmpd/DMSO %) at 10 μM (AD38 cells): 92%
- activity at 10 µM [1]: 0.9%

SMILES: N#CC1(COc2ccc(-c3ncc(CNC(=O)c4ccc5c(c4)NC(=O)c4ccccc4S5(=O)=O)s3)cc2)CCC1 [compound 11182]
- AD38 Viability Normalized Result (cmpd/DMSO %) at 10 μM (AD38 cells): 104%
- activity at 10 µM [1]: 0.7%

SMILES: O=C(NCc1cnc(N2C[C@H](O)CC[C@@H](O)C2)s1)c1ccc2c(c1)NC(=O)c1ccccc1S2(=O)=O [compound 1972]
- AD38 Viability Normalized Result (cmpd/DMSO %) at 10 μM (AD38 cells): 100%
- activity at 10 µM [1]: 23.5%

SMILES: CN(C)CCCOc1ccc(-c2ncc(CNC(=O)c3ccc4c(c3)NC(=O)c3ccccc3S4(=O)=O)s2)cc1 [compound 1679]
- AD38 Viability Normalized Result (cmpd/DMSO %) at 10 μM (AD38 cells): 94%
- activity at 10 µM [1]: 1.1%

SMILES: O=C(NCc1cnc(C(F)(F)F)s1)c1cc2c(cc1Cl)S(=O)(=O)c1ccccc1C(=O)N2 [compound 1934]
- AD38 Viability Normalized Result (cmpd/DMSO %) at 10 μM (AD38 cells): 69%
- activity at 10 µM [1]: 40%

SMILES: O=C(NCc1cnc(-c2cc[nH]n2)s1)c1ccc2c(c1)NC(=O)c1ccccc1S2(=O)=O [compound 1959]
- AD38 Viability Normalized Result (cmpd/DMSO %) at 10 μM (AD38 cells): 92%
- activity at 10 µM [1]: 5%

SMILES: O=C1Nc2c(ccc(C(=O)NCc3cnc(C(F)(F)F)s3)c2Cl)S(=O)(=O)c2ccccc21 [compound 11082]
- AD38 Viability Normalized Result (cmpd/DMSO %) at 10 μM (AD38 cells): 95%
- activity at 10 µM [1]: 1.2%

SMILES: CC(C)c1ncc(CNC(=O)c2ccc3c(c2)NC(=O)c2ccccc2O3)s1 [compound 1559]
- AD38 Viability Normalized Result (cmpd/DMSO %) at 10 μM (AD38 cells): 87%
- activity at 10 µM [1]: 0.7%

SMILES: NC(=O)c1ccc(-c2ncc(CNC(=O)c3ccc4c(c3)NC(=O)c3ccccc3S4(=O)=O)s2)c(F)c1 [compound 1970, N-((2-(4-carbamoyl-2-fluorophenyl)thiazol-5-yl)methyl)-11-oxo-10, 11-dihydrodibenzo [b, f] [1, 4] thiazepine-8-carboxamide 5,5-dioxide]
- AD38 Viability Normalized Result (cmpd/DMSO %) at 10 μM (AD38 cells): 121%
- activity at 10 µM [1]: 1.5%

SMILES: Nc1ccc(-c2ncc(CNC(=O)c3ccc4c(c3)NC(=O)c3ccccc3O4)s2)cn1 [compound 1707, N-((2-(6-aminopyridin-3-yl)thiazol-5-yl)methyl)-11-oxo-10, 11-dihydrodibenzo [b, f] [1, 4] oxazepine-8-carboxamide]
- AD38 Viability Normalized Result (cmpd/DMSO %) at 10 μM (AD38 cells): 88%
- activity at 10 µM [1]: 10.7%

SMILES: CC(C)(C)NCCCSc1ccc(-c2ncc(CNC(=O)c3ccc4c(c3)NC(=O)c3ccccc3S4(=O)=O)s2)cc1.O=C(O)C(F)(F)F [compound 11064, N-((2-(4-((3-(tert-butylamino)propyl)thio)phenyl)thiazol-5-yl)methyl)-11-oxo-10, 11-dihydrodibenzo [b, f] [1, 4] thiazepine-8-carboxamide 5,5-dioxide TFA salt]
- AD38 Viability Normalized Result (cmpd/DMSO %) at 10 μM (AD38 cells): 85%
- activity at 10 µM [1]: 4.1%

SMILES: CCN(CC)CCCSc1ccc(-c2ncc(CNC(=O)c3ccc4c(c3)NC(=O)c3ccccc3S4(=O)=O)s2)cc1 [compound 11063, N-((2-(4-((3-(diethylamino)propyl)thio)phenyl)thiazol-5-yl)methyl)-11-oxo-10, 11-dihydrodibenzo [b, f] [1, 4] thiazepine-8-carboxamide 5,5-dioxide]
- AD38 Viability Normalized Result (cmpd/DMSO %) at 10 μM (AD38 cells): 102%
- activity at 10 µM [1]: 1.2%

SMILES: Cc1cc(-c2ncc(CNC(=O)c3ccc4c(c3)NC(=O)c3ccccc3O4)s2)cc(C)c1O [compound 1738, N-((2-(4-hydroxy-3,5-dimethylphenyl)thiazol-5-yl)methyl)-11-oxo-10, 11-dihydrodibenzo [b, f] [1, 4] oxazepine-8-carboxamide]
- AD38 Viability Normalized Result (cmpd/DMSO %) at 10 μM (AD38 cells): 93%
- activity at 10 µM [1]: 2.9%

SMILES: O=C(NCc1cnc(-c2ccc(OCC3CNC3)cc2)s1)c1ccc2c(c1)NC(=O)c1ccccc1S2(=O)=O.O=C(O)C(F)(F)F [compound 1995, N-((2-(4-(azetidin-3-ylmethoxy)phenyl)thiazol-5-yl)methyl)-11-oxo-10, 11-dihydrodibenzo [b, f] [1, 4] thiazepine-8-carboxamide 5,5-dioxide TFA salt]
- AD38 Viability Normalized Result (cmpd/DMSO %) at 10 μM (AD38 cells): 103%
- activity at 10 µM [1]: 16.3%

SMILES: O=C(NCc1cnc(N2CCOCC2)s1)c1ccc2c(c1)NC(=O)c1ccccc1O2 [compound 1611]
- AD38 Viability Normalized Result (cmpd/DMSO %) at 10 μM (AD38 cells): 100%
- activity at 10 µM [1]: 1.4%

SMILES: O=C(NCc1cnc(-c2ccc3[nH]ccc3c2)s1)c1ccc2c(c1)NC(=O)c1ccccc1O2 [compound 1696]
- AD38 Viability Normalized Result (cmpd/DMSO %) at 10 μM (AD38 cells): 109%
- activity at 10 µM [1]: 0.8%

SMILES: CCN(CC)CCCCc1cnn(-c2ncc(CNC(=O)c3ccc4c(c3)NC(=O)c3ccccc3S4(=O)=O)s2)c1 [compound 11100]
- AD38 Viability Normalized Result (cmpd/DMSO %) at 10 μM (AD38 cells): 102%
- activity at 10 µM [1]: 6.8%

SMILES: O=C(O)COc1ccc(-c2ncc(CNC(=O)c3ccc4c(c3)NC(=O)c3ccccc3S4(=O)=O)s2)cc1 [compound 1581, 2-(4-(5-((5,5-dioxido-11-oxo-10, 11-dihydrodibenzo [b, f] [1, 4]thiazepine-8-carboxamido)methyl)thiazol-2-yl)phenoxy) acetic acid]
- AD38 Viability Normalized Result (cmpd/DMSO %) at 10 μM (AD38 cells): 93%
- activity at 10 µM [1]: 34.4%

SMILES: O=C(NCc1cnc(C(F)(F)F)s1)c1cc2c(cc1C(F)(F)F)S(=O)(=O)c1ccccc1C(=O)N2 [compound 1936]
- AD38 Viability Normalized Result (cmpd/DMSO %) at 10 μM (AD38 cells): 94%
- activity at 10 µM [1]: 13.5%

SMILES: O=C(NCc1cnc(-c2ccc(SCCCO)cc2)s1)c1ccc2c(c1)NC(=O)c1ccccc1S2(=O)=O [11063-A, N-((2-(4-((3-hydroxypropyl)thio)phenyl)thiazol-5-yl)methyl)-11-oxo-10, 11-dihydrodibenzo [b, f] [1, 4] thiazepine-8-carboxamide 5,5-dioxide]
- AD38 Viability Normalized Result (cmpd/DMSO %) at 10 μM (AD38 cells): 104%
- activity at 10 µM [1]: 0.4%

SMILES: Cc1c(C(=O)NCc2cnc(-c3ccc(O)cc3)s2)ccc2c1NC(=O)c1ccccc1S2(=O)=O [compound 1768]
- AD38 Viability Normalized Result (cmpd/DMSO %) at 10 μM (AD38 cells): 94%
- activity at 10 µM [1]: 0.4%

SMILES: N#Cc1ccc(-c2ncc(CNC(=O)c3cc4c(cc3Cl)Oc3ccccc3C(=O)N4)s2)cc1 [compound 1913]
- AD38 Viability Normalized Result (cmpd/DMSO %) at 10 μM (AD38 cells): 111%
- activity at 10 µM [1]: 68.1%
